Ten compounds from ChEMBL document CHEMBL1201862, “PubChem BioAssay data set” (2004) can be followed below.

Test systems include OVCAR-8; NCI-H226; OVCAR-5; A549; OVCAR-4; SK-MEL-5; SN12C; HOP-92; KM12; MOLT-4; RXF 393; EKVX; CCRF-CEM; SK-MEL-28; HT-29; NCI-H522; SF-268; NCI-H460; UACC-62; HCT-116.
Common to all, as to test: growth of human tumour cells (NCI), 48 h

SMILES strings stand for the structures.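 Following 48 hours of exposure in 96-well plates, responses at five concentrations were used to interpolate endpoints linearly. Abbreviation: GI50, concentration required for 50% inhibition of growth.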 Calls of active or inactive are those of the source. No stated cut-off is given here; in the data, active = GI50 up to about 1.1 µM and inactive = higher.

As for `O=[N+]([O-])c1cccc(/C=N/N=c2\ccc3ccccc3[nH]2)c1O`, the GI50 in the assay with OVCAR-8 was 2.21 µM (inactive); with NCI-H226 it was 2.64 µM (inactive); in the assay on OVCAR-5, 3.08 µM (inactive); in the assay on A549, 2.4 µM (inactive); in the assay on OVCAR-4, 1.07 µM (active); in the assay on SK-MEL-5, 0.984 µM (active). The GI50 is 1.53 µM (inactive) in the assay with SN12C; 7.5 µM (inactive) in the assay with HOP-92; 1.87 µM (inactive) in the assay on KM12; 0.83 µM (active) in the assay on MOLT-4; 2.07 µM (inactive) in the assay on RXF 393; 1.48 µM (inactive) in the assay on EKVX. Further, the GI50 with CCRF-CEM is 0.175 µM (active); in the assay on SK-MEL-28, 2.79 µM (inactive); with HT-29, 0.632 µM (active); in the assay with NCI-H522, 1.2 µM (inactive); in the assay on SF-268 it was 1.14 µM (inactive); in the assay with NCI-H460, 0.448 µM (active). Further, the GI50 in the assay with UACC-62 is 1.43 µM (inactive); in the assay on HCT-116 it was 0.526 µM (active).
Turning to `Cc1[nH]c(=O)nc(N/N=C/c2ccc(Cl)cc2)c1C(=O)Nc1ccc(Cl)cc1`, the GI50 in the assay on OVCAR-8 is 10.2 µM (inactive); with NCI-H226, > 100 µM (inactive); in the assay on OVCAR-5, 82.4 µM (inactive); with A549, 27 µM (inactive); in the assay on OVCAR-4, 9.95 µM (inactive); in the assay with SK-MEL-5, 18 µM (inactive). Moreover, the GI50 was 35.6 µM (inactive) in the assay with SN12C; 28.8 µM (inactive) in the assay with HOP-92; 32.9 µM (inactive) in the assay on KM12; 45.5 µM (inactive) with MOLT-4; 23 µM (inactive) in the assay on RXF 393; > 86.5 µM (inactive) with EKVX. The GI50 was > 66.7 µM (inactive) in the assay with CCRF-CEM; 27.4 µM (inactive) in the assay with SK-MEL-28; 24.1 µM (inactive) in the assay on HT-29; 27.3 µM (inactive) in the assay on NCI-H522; 41.8 µM (inactive) in the assay with SF-268; 10.4 µM (inactive) with NCI-H460. Also, the GI50 in the assay with UACC-62 is 47.3 µM (inactive); with HCT-116 it was 7.59 µM (inactive).
As for `O=C(CC(C(=O)c1ccco1)c1ccsc1)c1ccco1` (stereo not given), the GI50 in the assay on OVCAR-8 was > 100 µM (inactive); in the assay with NCI-H226, > 100 µM (inactive); with OVCAR-5, > 100 µM (inactive); with A549, 28.8 µM (inactive); in the assay on OVCAR-4 it was 75.2 µM (inactive); in the assay with SK-MEL-5, > 100 µM (inactive). Besides, the GI50 with SN12C is > 100 µM (inactive); with HOP-92, > 100 µM (inactive); with KM12, > 100 µM (inactive); in the assay on MOLT-4, 37.4 µM (inactive); with RXF 393 it was 48.9 µM (inactive); with EKVX, > 100 µM (inactive). Further, the GI50 is > 100 µM (inactive) in the assay with CCRF-CEM; > 100 µM (inactive) in the assay on SK-MEL-28; > 100 µM (inactive) with HT-29; 76.9 µM (inactive) in the assay on NCI-H522; > 100 µM (inactive) with SF-268; 71.1 µM (inactive) in the assay on NCI-H460. For the same compound, the GI50 was 90.4 µM (inactive) in the assay on UACC-62 and > 100 µM (inactive) in the assay on HCT-116.
For `C=CCC1(CN(C)C)CC/C(=C\c2cc(OC)c(OC)c(OC)c2)C1=O` (stereo not given), the GI50 in the assay on OVCAR-8 is 22.8 µM (inactive); with NCI-H226, 52.4 µM (inactive); in the assay with OVCAR-5, 51.9 µM (inactive); with A549, 40.2 µM (inactive); in the assay on OVCAR-4 it was 22.2 µM (inactive); with SK-MEL-5, 20 µM (inactive). The GI50 with SN12C is 22.3 µM (inactive); in the assay with HOP-92 it was 90.6 µM (inactive); with KM12, 17.4 µM (inactive); with MOLT-4, 27.5 µM (inactive); in the assay on RXF 393 it was 19.2 µM (inactive); with EKVX, 12.2 µM (inactive). Also, the GI50 is 23.3 µM (inactive) in the assay on CCRF-CEM; 34.2 µM (inactive) with SK-MEL-28; 20.5 µM (inactive) in the assay on HT-29; 15.1 µM (inactive) in the assay with NCI-H522; 19.2 µM (inactive) in the assay with SF-268; 18.8 µM (inactive) in the assay with NCI-H460. Also, the GI50 in the assay on UACC-62 was 21.3 µM (inactive); with HCT-116, 17.5 µM (inactive).
With `O=C1O[B-](c2ccccc2)(c2ccccc2)[NH+]2CCCC12` (stereo not given), the GI50 in the assay on OVCAR-8 is 74 µM (inactive); in the assay with NCI-H226, 49 µM (inactive); in the assay on OVCAR-5 it was > 100 µM (inactive); in the assay on A549, > 100 µM (inactive); with OVCAR-4, > 100 µM (inactive); in the assay with SK-MEL-5 it was 33 µM (inactive). Also, the GI50 in the assay with SN12C is > 100 µM (inactive); with HOP-92, 16.7 µM (inactive); in the assay on KM12, > 100 µM (inactive); in the assay on MOLT-4 it was > 100 µM (inactive); in the assay on RXF 393 it was 43.5 µM (inactive); in the assay on EKVX it was > 100 µM (inactive). In addition, the GI50 in the assay on CCRF-CEM is > 100 µM (inactive); in the assay with SK-MEL-28, 99.5 µM (inactive); with HT-29, > 100 µM (inactive); with NCI-H522, 64.7 µM (inactive); in the assay on SF-268 it was > 100 µM (inactive); in the assay with NCI-H460 it was > 100 µM (inactive). Further, the GI50 is > 100 µM (inactive) in the assay with UACC-62 and 47 µM (inactive) in the assay with HCT-116.
In the case of `Cn1c(-c2cccs2)cc(-c2ccsc2)c1-c1cccs1`, the GI50 with OVCAR-8 is > 100 µM (inactive); with NCI-H226, > 100 µM (inactive); with OVCAR-5, > 100 µM (inactive); in the assay on A549 it was > 100 µM (inactive); in the assay on OVCAR-4 it was > 100 µM (inactive); with SK-MEL-5, > 10 µM (inactive). The GI50 in the assay on SN12C was > 100 µM (inactive); in the assay with HOP-92, > 100 µM (inactive); with KM12, > 100 µM (inactive); in the assay on MOLT-4 it was 55.7 µM (inactive); in the assay with RXF 393, > 100 µM (inactive); with EKVX, 10.2 µM (inactive). In addition, the GI50 in the assay on CCRF-CEM is > 100 µM (inactive); with SK-MEL-28 it was 99.1 µM (inactive); with HT-29, 55.3 µM (inactive); in the assay on NCI-H522, 72.8 µM (inactive); in the assay on SF-268, > 100 µM (inactive); with NCI-H460 it was 48.1 µM (inactive). For the same compound, the GI50 was 42.6 µM (inactive) with UACC-62 and 16.3 µM (inactive) with HCT-116.
On to `COC(=O)c1c(C#C[Si](C)(C)C)c(C#C[Si](C)(C)C)c(C#C[Si](C)(C)C)c(C#C[Si](C)(C)C)c1C(=O)OC`, for which the GI50 in the assay on OVCAR-8, in the assay on NCI-H226, in the assay on OVCAR-5, in the assay with A549, in the assay with OVCAR-4 and in the assay with SK-MEL-5 was > 100 µM (inactive) each time. Moreover, the GI50 in the assay on SN12C, with HOP-92, with KM12, with MOLT-4, in the assay with RXF 393 and in the assay on EKVX was > 100 µM (inactive) each time. Besides, the GI50 with CCRF-CEM, in the assay with SK-MEL-28, in the assay with HT-29, in the assay on NCI-H522, with SF-268 and in the assay with NCI-H460 was > 100 µM (inactive) each time. For the same compound, the GI50 with UACC-62 and in the assay with HCT-116 was > 100 µM (inactive) in each case.
As for `O=C(O)CNc1ccc(C(=O)O)cc1`, the GI50 with OVCAR-8, in the assay on NCI-H226, with OVCAR-5, in the assay with A549, in the assay on OVCAR-4 and with SK-MEL-5 was > 100 µM (inactive) each time. For the same compound, the GI50 in the assay with SN12C, with HOP-92, in the assay with KM12, in the assay with MOLT-4, in the assay on RXF 393 and in the assay with EKVX was > 100 µM (inactive) throughout. The GI50 with CCRF-CEM, in the assay with SK-MEL-28, in the assay with HT-29, with NCI-H522, in the assay with SF-268 and in the assay with NCI-H460 was > 100 µM (inactive) each time. Also, the GI50 in the assay with UACC-62 and in the assay on HCT-116 was > 100 µM (inactive) each time.
As to `Cc1c2c(nc3ccccc13)C(=O)c1cccnc1C2=O`, the GI50 in the assay with OVCAR-8 is 16.8 µM (inactive); in the assay on NCI-H226 it was 18.9 µM (inactive); in the assay on OVCAR-5, 60.4 µM (inactive); in the assay with A549 it was 1.66 µM (inactive); in the assay on OVCAR-4, 56.2 µM (inactive); with SK-MEL-5, 0.381 µM (active). Further, the GI50 in the assay on SN12C is 5.79 µM (inactive); in the assay with HOP-92, 65.5 µM (inactive); with KM12, 14.9 µM (inactive); in the assay on MOLT-4 it was 9.71 µM (inactive); in the assay with RXF 393 it was 63.5 µM (inactive); in the assay with EKVX, 20 µM (inactive). Further, the GI50 in the assay on CCRF-CEM was 22.4 µM (inactive); in the assay on SK-MEL-28, 11.5 µM (inactive); with HT-29, 9.84 µM (inactive); in the assay with NCI-H522 it was 6.87 µM (inactive); in the assay with SF-268, 25.2 µM (inactive); in the assay with NCI-H460, 1.96 µM (inactive). In addition, the GI50 is 3.15 µM (inactive) with UACC-62 and 3.91 µM (inactive) in the assay with HCT-116.
Regarding `OCC1OC(c2scc3c(=S)[nH]cnc23)C(O)C1O` (stereo not given), the GI50 in the assay on OVCAR-8 is 1.24 µM (inactive); in the assay on NCI-H226, 16 µM (inactive); in the assay on OVCAR-5, 26.1 µM (inactive); in the assay on A549, 31.7 µM (inactive); in the assay with OVCAR-4, 4.01 µM (inactive); in the assay with SK-MEL-5, 22.7 µM (inactive). The GI50 was 6.15 µM (inactive) in the assay with SN12C; 0.796 µM (active) in the assay with HOP-92; 24.5 µM (inactive) in the assay on KM12; 4.25 µM (inactive) with MOLT-4; 11.9 µM (inactive) with RXF 393; 76.2 µM (inactive) with EKVX. Further, the GI50 in the assay on CCRF-CEM is 20.8 µM (inactive); in the assay with SK-MEL-28 it was 74 µM (inactive); with HT-29 it was 5.12 µM (inactive); with NCI-H522 it was 15.8 µM (inactive); in the assay on SF-268, 21.2 µM (inactive); in the assay with NCI-H460, 8.22 µM (inactive). In addition, the GI50 in the assay with UACC-62 was 8.65 µM (inactive); in the assay with HCT-116, 5.3 µM (inactive).
